Experimental data from US9540358B2, “Tricyclic compounds as anticancer agents” (ICAHN SCHOOL OF MEDICINE AT MOUNT SINAI, priority 2011, dated 2017).

tested on: H1650 lung cancer cells; experiment: Cell viability assay (MTT, IC50 determination); type: cell-based; conditions: 48 hours after drug treatment, MTT
Experimental: 89(22): p. […] H1650 lung cancer cells were plated at 150,000 cells per well in a 12 well plate. Twenty-four hours after plating, cells were treated as described with increasing concentrations of drug and control. Forty-eight hours after drug treatment, cells were treated with 100 μL of 3-(4,5-Dimethylthiazol-2-yl)-2,5-diphenyltetrazolium bromide (MTT) and incubated for 2 hours at 37 C. The MTT solution was subsequently replaced with 300 μL of n-propyl alcohol and re-aliquoted to a 96 well plates. Spectrophotometric analysis of each solution was performed using a 96 well plate reader at 600 nm in triplicate.

SMILES | IC50 [µM] | IC50 (Cell Viability Data)
COC(=O)NCCCN1c2ccccc2CCc2ccc(Cl)cc21 [Example 9, Methyl (3-(3-chloro-10,11-dihydro-5H-dibenzo[b,f]azepin-5-yl)propyl)carbamate] | 30 | 
COc1ccc(S(=O)(=O)NCCCN2c3ccccc3Sc3ccc(Cl)cc32)cc1 [Example 11, N-(3-(2-chloro-10H-phenothiazin-10-yl)propyl)-4-methoxybenzenesulfonamide] |  | INACTIVE
O=S(=O)(NCCCN1c2ccccc2CCc2ccc(Cl)cc21)c1ccc(Cl)cc1F [Example 28, N-(3-(3-chloro-10,11-dihydro-5H-dibenzo[b,f]azepin-5-yl)propyl)-4-chloro-2-fluorobenzenesulfonamide] |  | INACTIVE

same assay, conditions: Homo sapiens, NCI-H1650, 48 hours after drug treatment, MTT

SMILES | IC50 [µM]
Cc1ccc(S(=O)(=O)NCCCN2c3ccccc3Sc3ccc(Cl)cc32)cc1 [Example 3, N-(3-(2-chloro-10H-phenothiazin-10-yl)propyl)-4-methylbenzenesulfonamide] | 20
COC(=O)NCCCN1c2ccccc2Sc2ccc(Cl)cc21 [Example 4, Methyl (3-(2-chloro-10H-phenothiazin-10-yl)propyl)carbamate] | 10
Cc1ccc(S(=O)(=O)NCCCN2c3ccccc3CCc3ccc(Cl)cc32)cc1 [Example 8, N-(3-(3-chloro-10,11-dihydro-5H-dibenzo[b,f]azepin-5-yl)propyl)-4-methylbenzenesulfonamide] | 20
CN(C)C(=O)NCCCN1c2ccccc2CCc2ccc(Cl)cc21 [Example 10, 3-(3-(3-chloro-10,11-dihydro-5H-dibenzo[b,f]azepin-5-yl)propyl)-1,1-dimethylurea] | 20
O=S(=O)(NCCCN1c2ccccc2Sc2ccc(Cl)cc21)c1cc(F)cc(F)c1 [Example 13] | 18
N#Cc1ccc(S(=O)(=O)NCCCN2c3ccccc3Sc3ccc(Cl)cc32)cc1 [Example 14, N-(3-(2-chloro-10H-phenothiazin-10-yl)propyl)-4-cyanobenzenesulfonamide] | 40
O=S(=O)(NCCCN1c2ccccc2Sc2ccc(Cl)cc21)c1ccc(Cl)cc1 [Example 15, 4-Chloro-N-(3-(2-chloro-10H-phenothiazin-10-yl)propyl)benzenesulfonamide] | 20
CN(C)C(=O)NCCCN1c2ccccc2Sc2ccc(Cl)cc21 [Example 17, 3-(3-(2-Chloro-10H-phenothiazin-10-yl)propyl)-1,1-dimethylurea] | > 50
NCCCN1c2ccccc2CCc2ccccc21 [Example 19, 3-(10,11-dihydro-5H-dibenzo[b,f]azepin-5-yl)propan-1-aminium chloride] | 24.4
O=S(=O)(NCCCN1c2ccccc2CCc2ccc(Cl)cc21)c1ccc(F)cc1 [Example 20, N-(3-(3-chloro-10,11-dihydro-5H-dibenzo[b,f]azepin-5-yl)propyl)-4-fluorobenzenesulfonamide] | > 40
O=S(=O)(NCCCN1c2ccccc2CCc2ccc(Cl)cc21)c1ccc(C(F)(F)F)cc1 [Example 21, N-(3-(3-chloro-10,11-dihydro-5H-dibenzo[b,f]azepin-5-yl)propyl)-4-(trifluoromethyl)benzenesulfonamide] | 15.3
N#Cc1ccc(S(=O)(=O)NCCCN2c3ccccc3CCc3ccc(Cl)cc32)cc1 [Example 22, N-(3-(3-chloro-10,11-dihydro-5H-dibenzo[b,f]azepin-5-yl)propyl)-4-cyanobenzenesulfonamide] | 11.1
O=S(=O)(NCCCN1c2ccccc2CCc2ccc(Cl)cc21)c1ccc(Cl)cc1 [Example 23, 4-Chloro-N-(3-(3-chloro-10,11-dihydro-5H-dibenzo[b,f]azepin-5-yl)propyl)benzenesulfonamide] | ~25
CS(=O)(=O)c1ccc(S(=O)(=O)NCCCN2c3ccccc3CCc3ccc(Cl)cc32)cc1 [Example 24, N-(3-(3-chloro-10,11-dihydro-5H-dibenzo[b,f]azepin-5-yl)propyl)-4-(methylsulfonyl)benzenesulfonamide] | 15.1
COc1ccc(S(=O)(=O)NCCCN2c3ccccc3CCc3ccc(Cl)cc32)cc1 [Example 25, N-(3-(3-chloro-10,11-dihydro-5H-dibenzo[b,f]azepin-5-yl)propyl)-4-methoxybenzenesulfonamide] | < 40
O=S(=O)(NCCCN1c2ccccc2CCc2ccc(Cl)cc21)c1ccc(Cl)cc1Cl [Example 26, 2,4-dichloro-N-(3-(3-chloro-10,11-dihydro-5H-dibenzo[b,f]azepin-5-yl)propyl)benzenesulfonamide] | > 40
O=S(=O)(NCCCN1c2ccccc2CCc2ccc(Cl)cc21)c1ccc(Cl)c(Cl)c1 [Example 29, 3,4-dichloro-N-(3-(3-chloro-10,11-dihydro-5H-dibenzo[b,f]azepin-5-yl)propyl)benzenesulfonamide] | ~25
O=S(=O)(NCCN1c2ccccc2CCc2ccc(Cl)cc21)c1ccc(Cl)cc1 [Example 33, 4-chloro-N-(2-(3-chloro-10,11-dihydro-5H-dibenzo[b,f]azepin-5-yl)ethyl)benzenesulfonamide] | ~20
O=S(=O)(NCCN1c2ccccc2CCc2ccc(Cl)cc21)c1ccc(C(F)(F)F)cc1 [Example 34, N-(2-(3-chloro-10,11-dihydro-5H-dibenzo[b,f]azepin-5-yl)ethyl)-4-(trifluoromethyl)benzenesulfonamide] | ~20
O=S(=O)(NCCCN1c2ccccc2CCc2ccccc21)c1ccc(Cl)cc1 [Example 35, 4-chloro-N-(3-(10,11-dihydro-5H-dibenzo[b,f]azepin-5-yl)propyl)benzenesulfonamide] | ~20
O=S(=O)(NCCCN1c2ccccc2CCc2ccccc21)c1ccc(C(F)(F)F)cc1 [Example 36, N-(3-(10,11-dihydro-5H-dibenzo[b,f]azepin-5-yl)propyl)-4-(trifluoromethyl)benzenesulfonamide] | ~15
O=S(=O)(NCCN1c2ccccc2CCc2ccc(Cl)cc21)c1ccc(OC(F)(F)F)cc1 [Example 37, N-(2-(3-chloro-10,11-dihydro-5H-dibenzo[b,f]azepin-5-yl)ethyl)-4-(trifluoromethoxy)benzenesulfonamide] | ~25
O=S(=O)(NCCCN1c2ccccc2CCc2cc(Cl)ccc21)c1ccc(C(F)(F)F)cc1 [Example 38, N-(3-(2-chloro-10,11-dihydro-5H-dibenzo[b,f]azepin-5-yl)propyl)-4-(trifluoromethyl)benzenesulfonamide] | ~10
O=S(=O)(NCCCN1c2ccccc2CCc2ccc(Cl)cc21)c1cccc(C(F)(F)F)c1 [Example 39, N-(3-(3-chloro-10,11-dihydro-5H-dibenzo[b,f]azepin-5-yl)propyl)-3-trifluoromethylbenzenesulfonamide] | ~10
O=[N+]([O-])c1ccc(S(=O)(=O)NCCCN2c3ccccc3CCc3ccc(Cl)cc32)cc1 [Example 40, N-(3-(3-chloro-10,11-dihydro-5H-dibenzo[b,f]azepin-5-yl)propyl)-4-nitrobenzenesulfonamide] | ~15
O=S(=O)(NCCN1c2ccccc2Sc2ccc(Cl)cc21)c1ccc(C(F)(F)F)cc1 [Example 41, 4-trifluoromethyl-N-(2-(2-chloro-10H-phenothiazin-10-yl)ethyl)benzenesulfonamide] | ~25
O=S(=O)(NCCN1c2ccccc2Sc2ccc(Cl)cc21)c1ccc(OC(F)(F)F)cc1 [Example 42, 4-trifluoromethoxy-N-(2-(2-chloro-10H-phenothiazin-10-yl)ethyl)benzenesulfonamide] | ~25
